Source: US20100204460A1, “NATURAL BRASSINOSTEROIDS FOR USE FOR TREATING HYPERPROLIFERATION, TREATING PROLIFERATIVE DISEASES AND REDUCING ADVERSE EFFECTS OF STEROID DYSFUNCTION IN MAMMALS, PHARMACEUTICAL COMPOSITION AND ITS USE” (priority 2007, published 2010)

Columns and labels:
Assay type in all cases: cell-based
DU-145 cells [1] = experiment: Western blot of cell cycle and apoptosis related proteins, DU-145; conditions: for MDM-2 level (Western blot) / anti-apoptotic protein Bcl-2 expression (Western blot): IC50 for 6, 12, 24 h vs untreated control; for p53 expression (Western blot): vs untreated control
Description: The cells were seeded in a density 1.6×10^4 cells/cm^2 (LNCaP), 1.4×10^4 cells/cm^2 (DU-145, MDA-MB-468 and MCF-7) using culture medium in 100-mm culture Petri dishes. After reaching of 70-80% confluence, the cells were treated with tested compounds 9 in concentration IC50 that were evaluated by MTT analysis described above. DMSO was used as a vehicle for controls. After 6, 12 and 24 h treatment, the cells were washed with cold PBS and scraped in ice-cold protein extract ion buffer (50 mM HEPES, pH 7.5; 150 mM NaCl; 1 mM EDTA; 2.5 mM EGTA; 10% glycerol; 0.1% Tween 20) with protease and phosphatase inhibitors (25 μL/mL phenylmethanesulphonyl fluoride; 2.5 μL/mL leupeptin; 0.1 mM Na3VO4; 2.5 μL/mL aprotinin; 10 mM β-glycerol-phosphate; 1 mM dithiothreitol). The lysates were collected into microfuge tube and incubated on ice for 1 h. Cells were incubated 60 min at 4° C. under time by time shaking in protein extraction buffer. After centrifugation at 45 000×g for 30 min at 4° C., supernatant was collected, aliquoted, and stored at −80° C. The protein content in the lysates was measured by a Bredford assay (Bio-Rad Laboratories, Hercules, Calif., USA) according to the manufacture's protocol.
For Western blot analysis, equal aliquots of proteins (15-30 μg/well) were loaded on 10% or 12% SDS-PAGE gels and transferred onto nitrocellulose membranes (Amersham Biosciences, Vienna, Austria) by semi-dry electrophoretic transfer. Coloured marker (Rainbow™, Amersham Biosciences, Vienna, Austria) was used as a protein molecular weight standard. The non-specific binding sites were blocked by incubating the blot with 5% (w/v) non-fat dry milk in PBS for 2 h. The blot was incubated overnight in 4° C. with appropriate primary antibody that detects the protein epitope of interest and finally washed in PBS with 0.1% Tween 20 for 1 h. The blot was incubated with the diluted secondary goat anti-mouse IgG-horseradish peroxidase conjugated antibody (dilution 1:6000, Santa Cruz Biotechnology, Santa Cruz, Calif., USA) or goat anti-rabbit IgG-horseradish peroxidase conjugated antibody (dilution 1:2000, DakoCytomation, Glostrup, Denmark) for 45 min in 4° C. The membrane was washed in PBS with 0.1% Tween 20 for 1 h. The proteins were detected using a chemiluminescence detection system (Amersham Biosciences, Vienna, Austria) according to the protocol provided by the manufacturer. Equality of loaded proteins was confirmed by Ponceau S membrane staining (Sigma, St. Louis, Mo., USA) and by detection of anti-tubulin-α or anti-mcm-7 antibodies. The experiments were repeated three times. The protein expressions in treated cells were compared to untreated controls.
Western blot analysis was used to detect changes in apoptosis related protein expression in breast and prostate cancer cell lines. […] This decreased expression of Bid can indicate a cleavage of the protein after treatment by BRs. In DU-145 cell line, expression of pro-apoptotic proteins Bax and Bid was unchanged. […] On the other hand, caspase cleavage was not found in DU-145 cells. Poly-(ADP-ribose) polymerase (PARP) positive expression in controls of prostate cancer cell lines was observed but brassinosteroids had no effect on its expression nor on its degradation within the period 6/12/24 h (FIG. 6B).

DU-145 cells [2] = experiment: TUNEL detection of apoptosis, DU-145; conditions: IC50 concentration, control 0.0 ± 0.0
Description: TdT-Mediated dUTP nick end labeling (TUNEL) detection of apoptosis index. For detection of apoptotic cells, the TUNEL assay was used. […] After period of treatment, the cells were washed with PBS and fixed on the slides with cold acetone-methanol (1:1, v/v) for 10 min. Apoptosis-induced nuclear DNA fragmentation was detected by terminal deoxynucleotidyl transferase-mediated UTP nick end labeling (TUNEL) technique according to the producer protocol (In Situ Cell Death Detection Kit; Roche Diagnostics, Mannheim, Germany). The cells were then washed three times in PBS and stained with 4′-6-diamidino-2-phenylindole (DAPI; 50 μg/ml; Sigma, St. Louis, Mo., USA) for 10 min in the dark. The coverslips with cells were washed in deionized water and mounted on glass slides, using the hydrophilic medium Mowiol (Calbiochem, Fremont, Calif., USA) in glycerol-PBS (1:3, v/v) for fluorescence. Cells were visualized using fluorescence microscopy and compared with control cells. TUNEL staining achieved to confirm apoptosis in all cell lines.

LNCaP cells = experiment: BrdU incorporation assay, LNCaP
Description: To analyze if the inhibition in cell viability was due to decreased cell proliferation, we measured DNA synthesis in the presence of BRs. The effect of brassinosteroids 9 or 6 on cell proliferation and DNA replication of the cancer cells was measured by BrdU incorporation assay. This immunostaining was based on nuclear incorporation of bromodeoxyuridine (BrdU) into DNA in place of thymidine during the S-phase of cell cycle detected by anti-specific-BrdU antibody following membrane permeabilization as described previously (Gratzner, Science. 1982, 218, 474-475). […] The BrdU reagent (0.1 mM; Sigma, MO, USA) was added in culture medium with cells for 4 h in a CO2 incubator at 37° C. After incubation the cells were washed three times with PBS and fixed with cold acetone-methanol (1:1, v/v) for 10 min. The cells were denaturated by HCl (1:5; Lachema, Czech Republic) and incubated with anti-specific-BrdU antibody (diluted 1:100 in PBS; clone Bu20a, DakoCytomation, Denmark) for 60 min in the dark. The cells were then washed three times in PBS (10 mM, pH 7.4) and incubated with goat anti-mouse fluorescein isothiocyanate (FITC)-labeled secondary antibody (Sigma, MO, USA) for 60 min in the dark. The cells were then washed three times in PBS and incubated with DAPI (50 μg/mL; Sigma, MO, USA) for 10 min in the dark. The coverslips with cells were washed in deionized water and mounted on glass slides, using the hydrophilic medium Mowiol (Calbiochem, Calif., USA) in glycerol-PBS (1:3, v/v) for fluorescence. Cells were visualized using microscopy and those incorporating BrdU (S phase cells) were counted in at least 25 fields and compared with the total number of all cells.

[3] = treated at IC50 for 6 h, control 44 ± 6.0
[4] = treated at IC50 for 12 h, control 52 ± 7.6
[5] = treated at IC50 for 24 h, control 59 ± 8.0

Compound	MDM-2 level (Western blot) (DU-145 cells [1])	anti-apoptotic protein Bcl-2 expression (Western blot) (DU-145 cells [1])	p53 expression (Western blot) (DU-145 cells [1])	percentage of TUNEL positive cells (DU-145 cells [2]; 6 h) [%]	percentage of TUNEL positive cells (DU-145 cells [2]; 12 h) [%]	percentage of TUNEL positive cells (DU-145 cells [2]; 24 h) [%]	percentage of proliferating BrdU positive cells (LNCaP cells; [3]) [%]	percentage of proliferating BrdU positive cells (LNCaP cells; [4]) [%]	percentage of proliferating BrdU positive cells (LNCaP cells; [5]) [%]
CC(C)[C@@H](C)[C@@H](O)[C@H](O)[C@@H](C)[C@H]1CC[C@H]2[C@@H]3COC(=O)[C@H]4C[C@H](O)[C@H](O)C[C@]4(C)[C@H]3CC[C@]12C [Brassinosteroid 6, 24-Epibrassinolide]	decreased level of MDM-2 in all time points	decreased after treatment with 9 (6, 12 and 24 h) or 6 (6 and 24 h)	no p53 expression changes	4.7 ± 2.5	5.6 ± 2.0	5.1 ± 5.6	36 ± 5.5	31 ± 2.0	29 ± 4.7
CC[C@@H](C(C)C)[C@@H](O)[C@H](O)[C@@H](C)[C@H]1CC[C@H]2[C@@H]3CC(=O)[C@H]4C[C@H](O)[C@H](O)C[C@]4(C)[C@H]3CC[C@]12C [Brassinosteroid 9, 28-Homocastasterone]	decreased level of MDM-2 in all time points	decreased after treatment with 9 (6, 12 and 24 h)	no p53 expression changes	6.0 ± 2.0	7.5 ± 4.0	8.0 ± 4.0	25 ± 3.0	28 ± 4.6	27 ± 2.1
